# Assay results reported in publication PMC8904451, “Novel chalcone-derived pyrazoles as potential therapeutic agents for the treatment of non-small cell lung cancer” (Scientific Reports, 2022).
# Read-outs that look alike come from different tables or passages of the source.
# How the values were obtained:
# Format in all cases: cell-based, human
# [1] = test system: caspase-3/7 in H226 cells; assay: Caspase-3/7 activation by flow cytometry, H226; details: IC90
# Procedure: To explain the type of cell death that cancer cells undergo after treatment with PCH-1, the ability of the compound to activate caspases 3–7 was determined by flow cytometry. […] The most pronounced activation of caspase 3 occurred equally in A-549 and H226 cell lines after 48 h of treatment and was sevenfold greater than that in the vehicle.
# Cells were seeded onto tissue culture plates and allowed to attach for 24 h. Next, the cells were treated with PCH-1 or Etoposide at IC90 concentration for 6, 24, and 48 h. After incubation, the cells were harvested by trypsinization, rinsed twice with PBS, and stained with Annexin V Alexa Fluor™ 488 conjugate (Thermo Fisher, #A13201) for apoptosis assay and with CellEvent™ Caspase-3/7 Green Flow Cytometry Assay Kit (Thermo Fisher, #C10427) for caspase-3/7 activation according to the manufacturer’s protocols. The analysis was performed with Guava EasyCyte 8 cell sorter (Merck Millipore) and FlowJo software v10. Each experiment was repeated independently three times.
# [2] = test system: A-549, H226, and H460 cells; assay: Colony formation assay; details: 1, 5, 10 µM for 24 h, then 9 days culture
# Procedure: Cells were seeded onto 6-well plates (500 cells/well) and allowed to attach for 24 h in a fresh RPMI medium. Next, the cells were pretreated with DMSO (1%) solution of the examined compound (at the concentrations of 1, 5, and 10 µM) for 24 h. The medium containing compound was then changed, and the cells were cultured for additional 9 days. After incubation, the cells were washed twice with phosphate-buffered saline (PBS), fixed with 100% methanol for 30 min, and stained with 0.5% crystal violet for 15 min. The colonies were photographed and counted by ImageJ software.
# [3] = test system: A-549, H226, and H460 cells; assay: Annexin V/PI apoptosis assay by flow cytometry; details: 48 h, IC90, depending on the cell line; vehicle approximately 5%
# Procedure: To examine whether the effect of PCH-1 on reducing the viability of lung cancer cells was the result of inducing apoptotic cell death, A-549, H226, and H460 cells were treated with the compound for 6, 24, and 48 h, and analyzed by Annexin V/propidium iodide (PI) double staining using flow cytometry (Fig. S1 in supplementary information). […] At 24 h of treatment with the compound, a slight increase in both early (Annexin V(+)/PI(−)) and late (Annexin V(+)/PI(+)) apoptotic fractions was observed. […] PI can enter only those cells with damaged plasma membrane, which enables to differentiate early apoptotic cells from late apoptotic and necrotic cells. Overall, biochemical changes involved in apoptotic cell death were prevailing, whereas necrotic changes were not observed. Furthermore, typical phenotypic features of cells undergoing apoptosis were visualized by fluorescent microscopy in Supplementary Fig. S2 and described in Supplementary Information.
# Cells were seeded onto tissue culture plates and allowed to attach for 24 h. Next, the cells were treated with PCH-1 or Etoposide at IC90 concentration for 6, 24, and 48 h. […]
# A-549 cells [4] = assay: Cell cycle distribution by flow cytometry, cells synchronized with double-thymidine block; details: synchronized A-549, IC90, prolonged exposure (up to 10 h)
# Procedure: Promising antiproliferative properties of PCH-1 led us to further investigate the effect of this compound on cell cycle distribution. Therefore, cell cycle progression was analyzed by quantifying DNA content using flow cytometry. […] To thoroughly analyze the course of the cycle, A-549 cells were synchronized with a double-thymidine block in the G1 phase and treated with IC90 concentration of PCH-1 for the indicated time. Slight alterations of the division cycle were visible after 2 h of incubation with the compound.
# Cells were seeded onto tissue culture plates and allowed to attach for 24 h. Unsynchronized cells were treated with PCH-1 or Etoposide at IC90 concentration for 24 and 48 h, while synchronized cells were treated with PCH-1 or Etoposide at IC90 concentration for 2, 4, 6, 8, and 10 h. Synchronization of the cells was performed as described previously by Chen et al.[77]. Next, the cells were trypsinized, fixed in ice-cold 75% ethanol, and stored overnight at − 20 °C. After centrifugation, the cells were rinsed with PBS and stained with […] PI (Sigma-Aldrich) and […] RNaseA (Thermo Fisher) in PBS for 30 min at RT. The distribution of the cells in different phases of the cell cycle was determined by flow cytometry (Guava EasyCyte 8 cell sorter, Merck Millipore) and FlowJo software v10. Each experiment was repeated independently three times.
# A-549 cells [5] = assay: MTT cell viability assay, A-549; details: for IC50: Homo sapiens, A549
# Procedure: All the synthesized chalcone-derived pyrazoles were evaluated for their antiproliferative activity against three human non-small cell lung cancer cell lines: A-549, H226, and H460, and a nonmalignant human embryonic kidney cell line HEK293. Cisplatin and 5-fluorouracil (5-FU) were used as a reference. […] The results of the studies are expressed as the IC50 concentration that inhibits 50% growth of cells. […] Following treatment with PCH-1, the viability of all the tested cancer cell lines decreased in a concentration-dependent manner.
# The cell viability assay was performed for A-549, H226, H460, and HEK293 cells after treatment with the test compounds by using the 3-(4,5-dimethylthiazol-2-yl)-2,5-diphenyltetrazolium bromide (MTT, Sigma-Aldrich) assay. Briefly, cells were seeded onto 96-well culture plates for attachment. After 24 h, triplicate wells were treated with DMSO (1%) and the agents. […] After 2–4 h of incubation, the medium was removed, and the formazan crystals were dissolved in 100 μl of DMSO. The absorption was measured at 450 nm with an ASYS UVM340 microplate reader (Biochrom Ltd.). The 50% inhibitory concentration (IC50) was defined as the concentration that reduced the absorbance of the DMSO-treated wells by 50% of the vehicle. The IC50 values were generated from GraphPad Prism 9 software by plotting the survival curve as a function of dose from 3 independent experiments.
compound,measurement,setting,value
"COc1ccc(C2CC(c3cc4c(cc3OC)OCO4)=NN2C(C)=O)cc1 (stereo not shown) [PCH-1, 1-[3-(6-methoxy-2H-1,3-benzodioxol-5-yl)-5-(4-methoxyphenyl)-4,5-dihydro-1H-pyrazol-1-yl]ethan-1-one]","caspase-3/7 activation, increase compared to control, H226",[1]; 6 h,2.9 fold
same,"activation of caspase 3 vs vehicle, H226",[1]; 48 h,sevenfold
same,"cells with activated caspase 3/7 vs control, H226",[1]; later exposure,> 4.7 times
same,number of colonies,[2],reduced the number of colonies in all the tested cell lines in a dose-dependent manner
same,late apoptotic phase (Annexin V(+)/PI(+)) cells,[3],30–60%
same,increase in G2/M population as compared to control,A-549 cells [4],50.12%
same,"superior activity to the reference compound Cisplatin, A-549",A-549 cells [5]; 72 h IC50 ratio,approximately 6.7 fold
same,IC50,"A-549 cells [5]; 72 h, MTT, read-out: IC50 ± SD, growth inhibition, A-549",4.32 ± 0.28 µM
same,IC50,"A-549 cells [5]; A-549, 24 h, read-out: IC50 after 24 h of treatment",41.3 ± 0.75 µM
same,IC50,"A-549 cells [5]; A-549, 48 h, read-out: IC50 after 48 h of treatment",25.6 ± 0.97 µM
